In ChEMBL document CHEMBL4011640, “Identification and Structure-Activity Relationships of Novel Compounds that Potentiate the Activities of Antibiotics in Escherichia coli” (J Med Chem, 2017):
Converted amounts (≈) assume the structure as drawn. The source made the active and inactive calls. No cut-off for these calls is given here.

Experiments:
[1] = test system: Escherichia coli BW25113; experiment: Inhibition of AcrA efflux pump in Escherichia coli BW25113 assessed as compound concentration required for potentiation of novobiocin-induced antibacterial activity by 4 fold by checkerboard assay
[2] = test system: Escherichia coli; experiment: Antimicrobial activity against Escherichia coli harboring pores in outer membrane after 24 hrs by two-fold broth microdilution assay; format: functional
[3] = test system: Escherichia coli; experiment: Antimicrobial activity against Escherichia coli BW25113 after 24 hrs by two-fold broth microdilution assay; format: functional; details: BW25113, 24 h
[4] = test system: Escherichia coli; experiment: Binding affinity to Escherichia coli AG100 His-tagged AcrA at 50 uM by SPR assay
[5] = test system: Escherichia coli; experiment: Binding affinity to Escherichia coli AG100 His-tagged AcrA at 25 uM by SPR assay
[6] = test system: Escherichia coli; experiment: Inhibition of AcrA in Escherichia coli assessed as increase in HT dye uptake at 25 uM measured up to 600 secs by fluorescence method
[7] = test system: Escherichia coli; experiment: Antimicrobial activity against Escherichia coli harboring AcrAB-TolC deletion mutant after 24 hrs by two-fold broth microdilution assay; format: functional
[8] = test system: Escherichia coli; experiment: Antimicrobial activity against AcrAB-TolC knocked out Escherichia coli GD102 harboring […] pores in the outer membrane after 24 hrs by two-fold broth microdilution assay; format: functional; details: GD102, 24 h
[9] = test system: Escherichia coli; experiment: Disruption of transmembrane potential in Escherichia coli live cells harboring pores in outer membrane at 10 uM by DiSC3(5) probe-based fluorescence assay; format: functional
[10] = test system: Escherichia coli; experiment: Inhibition of AcrA in Escherichia coli assessed as HT dye uptake at 25 uM measured up to 600 secs by fluorescence method relative to control
[11] = test system: Escherichia coli; experiment: Ratio of MIC for wild type Escherichia coli harboring […] pores in the outer membrane to MIC for wild type Escherichia coli harboring […] pores in the outer membrane in presence of erythromycin; format: functional
[12] = test system: Escherichia coli; experiment: Ratio of MIC for wild type Escherichia coli harboring […] pores in the outer membrane to MIC for AcrAB-TolC knocked out Escherichia coli GD102 harboring […] pores in the outer membrane; format: functional
[13] = Ratio of MIC for wild type Escherichia coli BW25113 to MIC for Escherichia coli harboring […] pores in the outer membrane; format: functional, cell membranes
[14] = test system: Escherichia coli; experiment: Ratio of MIC for wild type Escherichia coli harboring […] pores in the outer membrane to MIC for wild type Escherichia coli harboring […] pores in the outer membrane in presence of novobiocin; format: functional
[15] = test system: Escherichia coli; experiment: Ratio of MIC for wild type Escherichia coli harboring AcrAB-TolC deletion mutant to MIC for AcrAB-TolC knocked out Escherichia coli GD102 harboring […] pores in the outer membrane; format: functional
[16] = test system: Escherichia coli; experiment: Inhibition of AcrA in Escherichia coli assessed as increase in HT dye uptake at 25 uM measured up to 600 secs by fluorescence method relative to control
[17] = test system: HEK293; experiment: Cytotoxicity against HEK293 cells assessed as reduction in cell viability after overnight incubation by Cell Titer Glo assay; format: cell-based; details: Homo sapiens
[18] = test system: Escherichia coli BW25113; experiment: Inhibition of AcrA efflux pump in Escherichia coli BW25113 assessed as compound concentration required for potentiation of novobiocin-induced antibacterial activity by 2 fold by checkerboard assay

O=C(Nc1ccc(C2=NCCN2)cc1)c1cccc(C(=O)Nc2ccc(C3=NCCN3)cc2)c1
Activity [1]: 200 µM

Nc1ccc(C2=NCCN2C(=O)c2ccc(C(=O)N3CCN=C3c3ccc(N)cc3)c(Cl)c2)cc1
Activity [1]: 50 µM

O=C(CCc1ccccc1)Nc1ccc(C2=NCCN2)cc1
Activity [1]: > 100 µM

O=C(Nc1ccc(C2=NCCN2)cc1)c1ccc2c(c1)CN(Cc1ccccc1)C2=O
Activity [1]: > 200 µM

O=C(Nc1ccc(C2=NCCN2)cc1)c1ccc(C(=O)Nc2ccc(C3=NCCN3)cc2)c([N+](=O)[O-])c1
Activity [1]: 25 µM

O=C(CCC(=O)Nc1ccc(C2=NCCN2)cc1)Nc1ccc(C2=NCCN2)cc1
Activity [1]: > 400 µM

O=C(Nc1ccc(NC(=O)c2ccc(C3=NCCN3)cc2)cc1)c1ccc(C2=NCCN2)cc1
MIC [2]: 50 µM (≈ 22.6 µg/mL) | MIC [3]: 50 µM (≈ 22.6 µg/mL) | Activity [1]: 12.5 µM | Activity [4]: Active | Activity [5]: Active | Activity [6]: inactive | MIC [7]: 25 µM (≈ 11.3 µg/mL) | MIC [8]: 12.5 µM (≈ 5.66 µg/mL)

O=C(/C=C/c1ccc(Br)cc1)Nc1ccc(C2=NCCN2)cc1
Activity [1]: 100 µM

O=C(Cc1ccc(Cl)cc1)Nc1ccc(C2=NCCN2)cc1
Activity [1]: > 100 µM

O=C(NCc1ccccc1)c1ccc(C(=O)Nc2ccc(C3=NCCN3)cc2)cc1
Activity [1]: > 200 µM

O=C(/C=C/c1ccccc1)Nc1ccc(C2=NCCN2)cc1
Activity [1]: 200 µM

O=C(Nc1ccc(C2=NCCN2)cc1)c1ccc(C(=O)Nc2ccc(C3=NCCN3)cc2)c(F)c1
Activity [1]: 100 µM

COc1ccc(/C=C/C(=O)Nc2ccc(C3=NCCN3)cc2)cc1
Activity [1]: 100 µM

N#Cc1ccc(NC(=O)c2ccc(C(=O)Nc3ccc(C#N)cc3)c(Cl)c2)cc1
Activity [1]: > 400 µM

O=C(/C=C/c1cccc(Cl)c1)Nc1ccc(C2=NCCN2)cc1
Activity [1]: 50 µM

CC(C)[C@@H]1NC(=O)[C@H](C)OC(=O)[C@@H](C(C)C)NC(=O)[C@@H](C(C)C)OC(=O)[C@H](C(C)C)NC(=O)[C@H](C)OC(=O)[C@@H](C(C)C)NC(=O)[C@@H](C(C)C)OC(=O)[C@H](C(C)C)NC(=O)[C@H](C)OC(=O)[C@@H](C(C)C)NC(=O)[C@@H](C(C)C)OC1=O
Activity ([9]; TDE = time-dependent effect): Tde

O=C(Nc1ccc(-c2ncc[nH]2)cc1)c1ccc(C(=O)Nc2ccc(-c3ncc[nH]3)cc2)c(Cl)c1
Activity [1]: > 400 µM

NCc1ccc(NC(=O)c2ccc(C(=O)Nc3ccc(CN)cc3)cc2)cc1
Activity [1]: 50 µM

O=C(/C=C/c1ccccc1Br)Nc1ccc(C2=NCCN2)cc1
MIC [2]: > 400 µM | fold change (FC) [10]: 11.6 | MIC [3]: > 400 µM | Ratio [11]: 32 | Ratio [12]: 8 | Activity [1]: 50 µM | Activity [5]: Active | Activity [6]: Active | Ratio [13]: 1 | MIC [7]: 200 µM (≈ 74.1 µg/mL) | MIC [8]: 100 µM (≈ 37 µg/mL) | Ratio [14]: 32

O=C(Nc1cccc(C2=NCCN2)c1)c1ccc(C(=O)Nc2cccc(C3=NCCN3)c2)cc1
MIC [2]: 100 µM (≈ 45.3 µg/mL) | fold change (FC) [10]: 1.7 | MIC [3]: 200 µM (≈ 90.5 µg/mL) | Ratio [11]: 4 | Ratio [12]: 4 | Activity [1]: 50 µM | Activity [5]: Active | Activity [6]: Active | Ratio [13]: 2 | MIC [7]: 50 µM (≈ 22.6 µg/mL) | MIC [8]: 25 µM (≈ 11.3 µg/mL) | Ratio [14]: 4

O=C(Nc1ccc(C2=NCCN2)cc1)[C@H]1CC[C@H](C(=O)Nc2ccc(C3=NCCN3)cc2)CC1
MIC [2]: 25 µM (≈ 11.5 µg/mL) | MIC [3]: 50 µM (≈ 22.9 µg/mL) | Activity [1]: > 400 µM | Activity [4]: inactive | Activity [5]: inactive | Activity [6]: Active | Ratio [13]: 2 | MIC [7]: 12.5 µM (≈ 5.73 µg/mL) | MIC [8]: 6.25 µM (≈ 2.87 µg/mL) | Ratio [15]: 2

O=C(Nc1ccc(C2=NCCN2)cc1)c1ccc2cc(Br)ccc2c1
MIC [2]: 200 µM (≈ 78.9 µg/mL) | fold change (FC) [10]: 16 | MIC [3]: > 400 µM | fold change (FC) [16]: 1.6 | Ratio [11]: 16 | Ratio [12]: 16 | Activity [1]: 25 µM | Activity [5]: Active | Activity [6]: Active | Ratio [13]: 4 | MIC [7]: 25 µM (≈ 9.86 µg/mL) | MIC [8]: 12.5 µM (≈ 4.93 µg/mL) | Ratio [14]: 16

O=C(Nc1ccc(C2=NCCN2)cc1)c1ccc(Cl)cc1
Activity [1]: 200 µM

O=C(/C=C/c1ccccc1C(F)(F)F)Nc1ccc(C2=NCCN2)cc1
Activity [1]: 50 µM

CC(C)c1ccc(/C=C/C(=O)Nc2ccc(C3=NCCN3)cc2)cc1
MIC [2]: 50 µM (≈ 16.7 µg/mL) | fold change (FC) [10]: 6.3 | MIC [3]: 100 µM (≈ 33.3 µg/mL) | Ratio [11]: 8 | Activity [9]: inactive | Ratio [12]: 2 | Activity [1]: 50 µM | Activity [5]: Active | Activity [6]: Active | Ratio [13]: 2 | MIC [7]: 25 µM (≈ 8.34 µg/mL) | IC50 [17]: > 100 µM | MIC [8]: 25 µM (≈ 8.34 µg/mL) | Ratio [14]: 8

O=C(Nc1ccc(CO)cc1)c1ccc(C(=O)Nc2ccc(CO)cc2)c(Cl)c1
Activity [1]: > 200 µM

CC(C)(C)c1ccc(/C=C/C(=O)Nc2ccc(C3=NCCN3)cc2)cc1
MIC [2]: 25 µM (≈ 8.69 µg/mL) | fold change (FC) [10]: 2.6 | MIC [3]: 25 µM (≈ 8.69 µg/mL) | fold change (FC) [16]: 2.6 | Ratio [11]: 2 | Activity [18]: 12.5 µM | Ratio [12]: 2 | Activity [5]: Active | Activity [6]: Active | Ratio [13]: 1 | MIC [7]: 12.5 µM (≈ 4.34 µg/mL) | MIC [8]: 12.5 µM (≈ 4.34 µg/mL) | Ratio [14]: 2

COC(=O)c1ccc(C(=O)Nc2ccc(C3=NCCN3)cc2)cc1
Activity [1]: > 400 µM

Cn1cnnc1-c1ccc(NC(=O)c2ccc(C(=O)Nc3ccc(-c4nncn4C)cc3)c(Cl)c2)cc1
Activity [1]: > 400 µM

O=C(Nc1ccc(C2=NCCN2)cc1)c1ccc(C(=O)Nc2ccc(C3=NCCN3)cc2)c(Cl)c1
MIC [2]: 100 µM (≈ 48.7 µg/mL) | fold change (FC) [10]: 3.2 | MIC [3]: > 200 µM | Ratio [11]: 8 | Activity [9]: inactive | Ratio [12]: 8 | Activity [1]: 25 µM | Activity [4]: Active | Activity [5]: Active | Activity [6]: Active | Ratio [13]: 4 | MIC [7]: 25 µM (≈ 12.2 µg/mL) | MIC [8]: 12.5 µM (≈ 6.09 µg/mL) | Ratio [14]: 16

O=C(Nc1ccc(S(=O)(=O)O)cc1)c1ccc(C(=O)Nc2ccc(S(=O)(=O)O)cc2)cc1
Activity [1]: > 100 µM

O=C(Nc1ccc(C2=NCCN2)cc1)c1ccc(C(=O)Nc2ccc(C3=NCCN3)cc2)c(Br)c1
Activity [1]: 50 µM

Cc1cc(C(=O)Nc2ccc(C3=NCCN3)cc2)ccc1C(=O)Nc1ccc(C2=NCCN2)cc1
Activity [1]: 25 µM

O=C(Nc1ccc(C2=NCCN2)cc1)c1ccc(C(=O)Nc2ccc(C3=NCCN3)cc2)cc1
Activity [1]: 50 µM

O=C(/C=C/c1ccccc1Cl)Nc1ccc(C2=NCCN2)cc1
MIC [2]: 400 µM (≈ 130 µg/mL) | fold change (FC) [10]: 9.7 | MIC [3]: > 200 µM | Ratio [11]: 8 | Activity [9]: inactive | Ratio [12]: 4 | Activity [1]: 25 µM | Activity [5]: Active | Activity [6]: Active | Ratio [13]: 1 | MIC [7]: 200 µM (≈ 65.2 µg/mL) | IC50 [17]: 10.5 µM | MIC [8]: 100 µM (≈ 32.6 µg/mL) | Ratio [14]: 32

N#Cc1cccc(NC(=O)c2ccc(C(=O)Nc3cccc(C#N)c3)c(Cl)c2)c1
Activity [1]: > 400 µM

O=C(/C=C/c1ccc(Cl)cc1)Nc1ccc(C2=NCCN2)cc1
MIC [2]: 100 µM (≈ 32.6 µg/mL) | fold change (FC) [10]: 2.5 | MIC [3]: 200 µM (≈ 65.2 µg/mL) | Ratio [11]: 4 | Ratio [12]: 4 | Activity [1]: 25 µM | Activity [6]: Active | Ratio [13]: 2 | MIC [7]: 50 µM (≈ 16.3 µg/mL) | MIC [8]: 25 µM (≈ 8.14 µg/mL) | Ratio [14]: 8
